The source of these data is patent US4209517A, “α-Ethylenic alcohols and ketones, their preparation, and their use as medicaments” (Unicler, priority 1978, dated 1980).

Molecules are shown by their SMILES.

Data set [1] is described as follows: Remarks on the hydrochloride (Table I). As to conditions: hydrochloride column of Table I. It counts as physicochemical.
For data set [2], the system named is attack caused by pentetrazol. In words: Anti-convulsant action: attack caused by pentetrazol. As to conditions: mice, 30 min before pentetrazol 125 mg/kg IP. It counts as in vivo.
Method: A convulsive attack is caused by pentetrazol which, when injected into mice intraperitoneally at a dosage of 125 mg/kg, produces 100% mortality in 5 to 7 minutes.
Mice, each weighing about 20 g, are given the product being studied intraperitoneally, thirty minutes before the administration of pentetrazol.
Data set [3] is described as follows: Toxicity: LD50 in mice, intraperitoneal route (Log-Probits method of Miller and Tainter). As to conditions: mouse, in vivo, IP. As to the method: The LD50 of the products was measured in mice by the intraperitoneal route in accordance with the "Log-Probits" method of Miller and Tainter (Proc. Soc. Exptl. Biol. Med. 1944; 57, 261-264).
For data set [4], the system named is blepharospasm caused by reserpine. In words: Antagonism to reserpine (blepharospasm). The settings on record: male Swiss mice, before reserpine 5 mg/kg IP. Details: key: The inhibition of blepharospasm is marked from 0 to +++; ±: The inhibition of blepharospasm is marked from 0 to +++; The inhibition of blepharospasm is marked from 0 to +++; The inhibition of blepharospasm is marked from 0 to +++. It counts as in vivo. The protocol: (Chen G., and Bohner B., (1961) J. pharmacol. Exptl. Therap. 131, 179).
Reserpine administered to mice in a dosage of 5 mg/kg intraperitoneally produces in the first few hours a more or less complete closure of the eyelids in most of the animals. The administration of certain products inhibits the blepharospasm caused by reserpine.
Male Swiss mice are distributed into batches of 10 mice and each experiment involves at least 3 batches:
a control batch that receives only the solvent and reserpine
a batch treated with a reference product: we selected Imipramine
a treated batch receiving the product being tested.
The experimental products are administered intraperitoneally either 30 minutes or 2 hours before the intraperitoneal injection of reserpine at a dosage of 5 mg/kg, in order to study their activity as a function of time.
The degree of ptosis for each eye and each animal is observed every 30 minutes for 4 to 5 hours, using RUBIN's score method. The activity of the product is determined by comparison with the result obtained with the treated control batch. The inhibition of blepharospasm is marked from 0 to +++.

Another data set concerns central nervous system. In words: Activity on the central nervous system (overall conclusion of the pharmacological tests). It counts as in vivo. As to conditions: conclusion in words. The text has this:
This was investigated by observing the behaviour of animals, by studying the modifications in narcosis produced by hexobarbital and studying the anti-convulsant power.

In data set [5] the test system is narcosis produced by hexobarbital. Put plainly: Modification of narcosis produced by hexobarbital. It counts as in vivo. The settings on record: Mus musculus, 0.5 h, mice, half an hour before hexobarbital 70 mg/kg, read-out: Narcosis potentialisation T (percentage increase in sleeping time induced by hexobarbital); for change in vivo at 100 mg/kg: 100 mg/kg IP; for change in vivo at 200 mg/kg: 200 mg/kg IP. As to the method: Mice, each weighing about 20 g, received the product under investigation by the intraperitoneal route. Half an hour later sodium hexobarbital was injected by the same route at a dosage of 70 mg/kg.
The animals were placed on a hot plate kept at a constant temperature of 27° C. It is considered that sleep is established when a mouse, placed in the dorsal decubitus, is incapable of turning over and standing on its paws.
The narcosis potentialisation is evaluated by the percentage increase in sleeping time induced by hexobarbital (T).

Data set [6] deals with epileptic attack by electric shock. In words: Anti-convulsant action: electric shock. It counts as in vivo. As to conditions: Rattus norvegicus, 0.5 h, male rats, 30 min before 30 volts for 0.5 second, read-out: Electric shock: percentage protection (P); for responders at 100 mg/kg: 100 mg/kg IP; for responders at 200 mg/kg: 200 mg/kg IP. The protocol:
The application of an electric current of 30 volts for 0.5 second to the cerebral hemispheres produces an epileptic attack.
Male rats each weighing 180 to 200 g receive intraperitoneally the solvent or the product being investigated. Thirty minutes later the animals are subjected to electric shocks. It is noted whether the attack is complete or incomplete, and the percentage protection (P) conferred by the product administered is determined.

Where [7] appears, read: Mus musculus, 0.5 h, 200 mg/kg IP, read-out: Pentrazole: percentage protection (P).

`OC(C=Cc1ccc2c(c1)OCO2)CCCN1CCCCC1` (centres unmarked) [AB 754]: the Hygroscopicity of hydrochloride result in data set [1] is on record as “hygroscopic”.
As to `O=C(C=Cc1ccc2c(c1)OCO2)CN1CCOCC1` [compound 996], the responders at 75 mg/kg came out at 0% in data set [2] (Mus musculus, 0.5 h, 75 mg/kg IP, read-out: Pentrazole: percentage protection (P)) and 50% in data set [6] (75 mg/kg IP). Moreover, in data set [3], the LD50 (as a rule, the dose expected to kill half of the subjects tested) amounted to 750 mg/kg. Further, the “Inhibition of blepharospasm caused by reserpine” value (shortened to “Inhibition”) in data set [4] (75 mg/kg IP) was “+”. Besides, in the data set with central nervous system, the Usefulness as anti-depressants entry was “particularly useful as anti-depressants”. In data set [5] (75 mg/kg IP), the change in vivo at 75 mg/kg was 106%.
On to `OC(C=Cc1ccc2c(c1)OCO2)CN1CCOCC1` (centres unmarked) [compound 997], for which the responders at 50 mg/kg came out at 0% in data set [2] (Mus musculus, 0.5 h, 50 mg/kg IP, read-out: Pentrazole: percentage protection (P)) and 60% in data set [6] (50 mg/kg IP). In addition, the “Pentrazole: time of death as multiple of that (t) of the control group” value (from here on “Pentrazole: time of death”) in data set [2] (50 mg/kg IP) was 2 t ×. In data set [3], this compound came in with an LD50 of 500 mg/kg. Moreover, in data set [4] (50 mg/kg IP), the “Inhibition” value is listed as “+++”. In the data set on central nervous system, the Usefulness as anti-depressants result was “particularly useful as anti-depressants”. The change in vivo at 50 mg/kg in data set [5] (50 mg/kg IP) was found to be 0%.
For `CC(C)=CCCC(O)C=Cc1ccc2c(c1)OCO2` (centres unmarked) [compound 999], the responders at 100 mg/kg in data set [2] (Mus musculus, 0.5 h, 100 mg/kg IP, read-out: Pentrazole: percentage protection (P)) came out at 0%; in data set [6], 90%. Moreover, the “Pentrazole: time of death” value in data set [2] (100 mg/kg IP) was found to be 5 t ×. In data set [3], the 50% lethal dose (LD50) came to 1000 mg/kg. In addition, in data set [4] (50 mg/kg IP), the “Inhibition” value amounted to 0. Besides, the change in vivo at 100 mg/kg in data set [5] came to 201%.
On to `CC(C(O)C=Cc1ccc2c(c1)OCO2)N1CCOCC1` (centres unmarked) [compound 1340], for which the responders at 40 mg/kg in data set [2] (Mus musculus, 0.5 h, 40 mg/kg IP, read-out: Pentrazole: percentage protection (P)) is 10%; in data set [6] (40 mg/kg IP) it was 10%. This compound showed an LD50 in data set [3] of 400 mg/kg.
As for `CC(CN1CCN(C)CC1)C(=O)C=Cc1ccc2c(c1)OCO2` (centres unmarked) [compound 1201], the responders at 7.5 mg/kg stood at 0% in data set [2] (Mus musculus, 0.5 h, 7.5 mg/kg IP, read-out: Pentrazole: percentage protection (P)) and 10% in data set [6] (7.5 mg/kg IP). The “Pentrazole: time of death” value in data set [2] (7.5 mg/kg IP) came to 2 t ×. In addition, the LD50 in data set [3] stood at 75 mg/kg. In addition, the “Inhibition” value in data set [4] (7.5 mg/kg IP) was “±”. The change in vivo at 7.5 mg/kg in data set [5] (7.5 mg/kg IP) worked out at 17%.
In the case of `O=C(C=Cc1ccc2c(c1)OCO2)C1CCCCC1` [compound 1036], the figures for the responders at 200 mg/kg in data set [2] (setting [7]) and in data set [6] were 10% and 0%, respectively. Also, the “Pentrazole: time of death” value in data set [2] (200 mg/kg IP) is listed as 2.6 t ×. This compound gave an LD50 in data set [3] of 2000 mg/kg. Also, in data set [5], the change in vivo at 200 mg/kg is 135%.
For `CC(CN1CCN(C)CC1)C(O)C=Cc1ccc2c(c1)OCO2` (centres unmarked) [compound 1202], the responders at 25 mg/kg in data set [2] (Mus musculus, 0.5 h, 25 mg/kg IP, read-out: Pentrazole: percentage protection (P)) came to 10%; in data set [6] (25 mg/kg IP), 10%. In data set [2] (25 mg/kg IP), the “Pentrazole: time of death” value came to 2 t ×. For the same compound, the median lethal dose (LD50) in data set [3] stood at 250 mg/kg. The “Inhibition” value in data set [4] (25 mg/kg IP) is listed as 0. For the same compound, the change in vivo at 25 mg/kg in data set [5] (25 mg/kg IP) came out at 5%.
On to `CC(C)=CCCC(=O)C=Cc1ccc2c(c1)OCO2` [compound 998], for which the responders at 200 mg/kg in data set [2] (setting [7]) amounted to 0%; in data set [6], 30%. Also, the LD50 in data set [3] was 2000 mg/kg. Also, in data set [4] (200 mg/kg IP), the “Inhibition” value was 0. Further, the change in vivo at 200 mg/kg in data set [5] is 490%.
Regarding `OC(C=Cc1ccc2c(c1)OCO2)C1CCCCC1` (centres unmarked) [compound 1037], the LD50 in data set [3] amounted to 1000 mg/kg. Also, the change in vivo at 100 mg/kg in data set [5] stood at 225%. The responders at 100 mg/kg in data set [6] turned out to be 0%.
For the compound `CC(CN1CCOCC1)C(O)C=Cc1ccc2c(c1)OCO2` (centres unmarked) [compound 1156], the responders at 60 mg/kg came out at 10% in data set [2] (Mus musculus, 0.5 h, 60 mg/kg IP, read-out: Pentrazole: percentage protection (P)) and 50% in data set [6] (60 mg/kg IP). In addition, the “Pentrazole: time of death” value in data set [2] (60 mg/kg IP) was found to be 1.6 t ×. In data set [3], this compound had an LD50 of 600 mg/kg. Also, the “Inhibition” value in data set [4] (60 mg/kg IP) came out at 0. The change in vivo at 60 mg/kg in data set [5] (60 mg/kg IP) is 79%.
Consider `CC(C(=O)C=Cc1ccc2c(c1)OCO2)N1CCOCC1` (centres unmarked) [compound 1321], for which the responders at 85 mg/kg in data set [2] (Mus musculus, 0.5 h, 85 mg/kg IP, read-out: Pentrazole: percentage protection (P)) is 20%; in data set [6] (85 mg/kg IP) it was 50%. The same compound came in with an LD50 in data set [3] of 850 mg/kg. Moreover, the “Inhibition” value in data set [4] (85 mg/kg IP) is listed as 0. Besides, the change in vivo at 85 mg/kg in data set [5] (85 mg/kg IP) worked out at 227%.
Take `CC(C)=CC(=O)C=Cc1ccc2c(c1)OCO2` [compound 1003]: the responders at 200 mg/kg in data set [2] (setting [7]) and in data set [6] was 0% throughout. In addition, in data set [2] (200 mg/kg IP), the “Pentrazole: time of death” value is recorded as 15 t ×. This compound came in with a 50% lethal dose (LD50) in data set [3] of 2000 mg/kg. For the same compound, in data set [4] (200 mg/kg IP), the “Inhibition” value is 0. Besides, the change in vivo at 200 mg/kg in data set [5] is 223%.
